{"source": "patent US20250387382A1", "about": "“METHODS OF TREATING ESSENTIAL TREMOR” (Praxis Precision Medicines, Inc., priority 2023, published 2025)", "tested_on": "patients with ET", "assay": "Open-label extension of the Phase 2 trial (blinded six-week lead-in, week 14 assessment)", "assay_type": "in vivo, human", "method": "After the DB part of the trial was complete, participants were able to choose to enter the Extension part of the trial. Participants who chose to enter the Extension began receiving OL study drug for up to 12 months, or start of the cross-over period, after a 43-day Extension DB Lead-in Period, whichever was earlier. During this Extension DB Lead-in Period, participants who received placebo or 60 mg in the DB part of the trial titrated up to 100 mg in a DB fashion utilizing the same dose titration regimen as in the DB part of the trial. Participants who received 100 mg in the DB part of the trial continued to receive 100 mg in a blinded fashion until all participants were receiving Compound 1 100 mg QAM as of Day 99. Participants who were unable to tolerate fixed-dose titration to 100 mg during the Extension DB Lead-in Period were discontinued from the trial and asked to attend the Safety Follow-up/EOS-E Visit. After the Extension DB Lead-in Period, participants flexibly dosed with Compound 1 (20-100 mg) QAM at the discretion of the Investigator during the Extension OL Period until the start of the cross-over period. Participants who consented to participate in the separate LTSS were able to end participation in the current study after completing the End of Treatment Visit and join the LTSS at any point during the Extension OL Period.\nAll participants who continued into the Extension part of the trial participated in a 43 day Extension DB Lead-in Period so all participants could be titrated to the 100-mg dose in a blinded fashion (Table 2) before receiving open-label, flexible doses of Compound 1 (20-100 mg) for up to 12 months (Days 100-459) during the Extension OL Period.\nFollowing completion of the initial 8 weeks double-blind treatment phase of the Phase 2 trial described in Example 1, eligible patients had the option to continue their access to Compound 1 in an open-label extension phase (OLE). Participants who continued to the open label extension (OLE) phase remained blinded for a six-week lead-in phase.\nIn the Extension part of the trial, measures of efficacy include analysis of change from baseline to Days 70, 84, 99, 129, 159, 189, 279, 369, and 459 in modified ADL, CGI-S, TETRAS-ADL total score, TETRAS-PS total score, TETRAS UL score, TETRAS CUL score, and CGI-I and PGI-C scores at Days 70, 84, 99, 129, 159, 189, 279, 369, and 459.\nA total of 65 patients who completed the double-blinded portion of the Phase 2 trial described in Example 1 were eligible to participate in the OLE and completed the week 14 assessment. FIG. 21 is a bar graph showing change in mADL11 scores from baseline, by study week from week 8 to week 14. Patients who were eligible and continued on Compound 1 (n=39) experienced an additional mean improvement in mADL11 of 1.7 points from 3.09 at Weck 8 (95% CI: 0.98, 5.2) to 4.81 (95% CI: 2.38, 7.23) after 14 weeks of treatment. Patients who switched from placebo to Compound 1 treatment during the OLE 6-week lead-in (n=26) experienced mean improvement in mADL11 of 3.15 points from 1.21 at Week 8 (95% CI: −1.04, 3.46) to 4.36 (95% CI: 1.68, 7.05.", "key": {"[1]": {"conditions": "patients who continued on Compound 1, n=39"}, "[2]": {"conditions": "patients who switched from placebo to Compound 1, n=26"}}, "data": [{"compound": "CC(C)(C)NC(=O)CN1CCC(CNC(=O)c2cc(F)cc(Cl)c2)CC1", "note": "[Compound 1, N-((1-(2-(tert-butylamino)-2-oxoethyl)piperidin-4-yl)methyl)-3-chloro-5-fluorobenzamide]", "values": [{"measurement": "Additional mean improvement in mADL11 from Week 8 to week 14", "setting": "[1]", "value": 1.7, "unit": "points"}, {"measurement": "mADL11 mean improvement from baseline after 14 weeks", "setting": "[1]", "value": 4.81, "unit": "points"}, {"measurement": "mADL11 mean improvement from baseline at Week 8", "setting": "[1]", "value": 3.09, "unit": "points"}, {"measurement": "Mean improvement in mADL11 from Week 8 during OLE 6-week lead-in", "setting": "[2]", "value": 3.15, "unit": "points"}, {"measurement": "mADL11 mean improvement from baseline after OLE 6-week lead-in", "setting": "[2]", "value": 4.36, "unit": "points"}, {"measurement": "Overall safety results", "setting": "through 14 weeks of treatment", "value": "no change to the overall safety results"}]}]}
